How the values were obtained:
[1] = tested on: skin reddening symptoms of Rosacea and other facial skin disorders; conditions: topical applications in a cosmetic lotion, applied as needed
Source text: For example, using step 106 alone. Further embodiments of the present invention therefore comprise phenyl-epinephrine cosmetic skin lotion. The skin lotion is applied as needed by the user, e.g., just before going out in public.

[2] = tested on: non-mucous membrane skin tissues; conditions: topical application; phenyl-epinephrine strength of at least one percent; water-based gel
Source text: The topical applications of phenyl-epinephrine used in steps 104, 106, and 108, can include the use of a skin lotion comprising phenyl-epinephrine in solution with a strength sufficient for transdermal absorption by non-mucous membrane skin tissues. Such phenyl-epinephrine is the only active ingredient, and it is preferably compounded with a water-based gel. Such gel provides for holding the phenyl-epinephrine in contact with a user's skin for a minimal residence time sufficient to induce vasoconstriction.

CNC[C@H](O)c1cccc(O)c1 [phenyl-epinephrine]
relief of skin reddening symptoms [1]: temporary relief of skin reddening symptoms
vasoconstriction [2]: produced the desired vasoconstriction

From US20050256204A1, “Topical phenyl-epinephrine Rosacea treatment” (priority 2004, published 2005)
